Experiments:
Format in all cases: cell-based
adenosine A1 receptor = biological target: T1, adenosine A1 receptor (Homo sapiens, UniProt P30542); assay: Indirect determination of adenosine agonism by way of gene expression (luciferase reporter), A1 cells; settings: CHO cells stably transfected with A1 receptor cDNA; 1 μM forskolin; 50% inhibition of luciferase answer
T1 construct: expressed in transfected cells; host or cells: CHO (Chinese Hamster Ovary)
T1 sequence (P30542 1-326): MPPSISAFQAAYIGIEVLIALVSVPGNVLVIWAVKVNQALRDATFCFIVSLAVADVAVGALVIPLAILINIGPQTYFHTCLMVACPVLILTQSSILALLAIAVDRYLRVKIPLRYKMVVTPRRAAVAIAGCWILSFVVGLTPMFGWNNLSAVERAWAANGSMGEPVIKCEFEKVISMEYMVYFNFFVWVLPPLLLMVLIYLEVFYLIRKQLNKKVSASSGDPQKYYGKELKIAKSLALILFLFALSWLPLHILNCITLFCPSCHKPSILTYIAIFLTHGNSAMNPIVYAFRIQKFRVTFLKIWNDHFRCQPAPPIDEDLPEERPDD
Excerpt: (§1) B-1. Indirect Determination of the Adenosine Agonism by Way of Gene Expression
(§2) Cells of the CHO (Chinese Hamster Ovary) permanent line are transfected stably with the cDNA for the adenosine receptor subtypes A1, A2a and A2b. The adenosine A1 receptors are coupled to the adenylate cyclase by way of Gi proteins, while the adenosine A2a and A2b receptors are coupled by way of Gs proteins. In correspondence with this, the formation of cAMP in the cell is inhibited or stimulated, respectively. After that, expression of the luciferase is modulated by way of a cAMP-dependent promoter. The luciferase test is optimized, with the aim of high sensitivity and reproducibility, low variance and good suitability for implementation on a robot system, by varying several test parameters, such as cell density, duration of the growth phase and the test incubation, forskolin concentration and medium composition. The following test protocol is used for pharmacologically characterizing cells and for the robot-assisted substance screening:
(§3) The stock cultures are grown, at 37° C. and under 5% CO2, in DMEM/F12 medium containing 10% FCS (fetal calf serum) and in each case split 1:10 after 2-3 days. The test cultures are seeded in 384-well plates with 2000 cells per well and grown at 37° C. for approx. 48 hours. The medium is then replaced with a physiological sodium chloride solution (130 mM sodium chloride, 5 mM potassium chloride, 2 mM calcium chloride, 20 mM HEPES, 1 mM magnesium chloride hexahydrate, 5 mM sodium bicarbonate, pH 7.4). The substances to be tested, which are dissolved in DMSO, are pipetted into the test cultures (maximum final concentration of DMSO in the test mixture: 0.5%) in a dilution series of from 5×10^−11M to 3×10^−6M (final concentration). 10 minutes later, forskolin is added to the A1 cells and all the cultures are subsequently incubated at 37° C. for four hours. After that, 35 μl of a solution which is composed of 50% lysis reagent (30 mM disodium hydrogenphosphate, 10% glycerol, 3% TritonX100, 25 mM TrisHCl, 2 mM dithiotreitol (DTT), pH 7.8) and 50% luciferase substrate solution (2.5 mM ATP, 0.5 mM luciferin, 0.1 mM coenzyme A, 10 mM tricine, 1.35 mM magnesium sulfate, 15 mM DTT, pH 7.8) are added to the test cultures, which are shaken for approx. 1 minute and the luciferase activity is measured using a camera system. The EC50 values are determined, i.e., the concentrations at which 50% of the luciferase answer is inhibited in the case of the A1 cell, and, respectively, 50% of the maximum stimulation with the corresponding substance is achieved in the case of the A2b and A2a cells. […] Pharmacol., 357 (1998), 1-9).
(§4) Table 1 below lists the EC50 values of representative working examples for the receptor stimulation on adenosine A1, A2a and A2b receptor subtypes: […]

adenosine A2a receptor = biological target: T2, adenosine A2a receptor (Homo sapiens, UniProt P29274); assay: Indirect determination of adenosine agonism by way of gene expression (luciferase reporter), A2a cells; settings: CHO cells stably transfected with A2a receptor cDNA; 50% of maximum stimulation
T2 construct: expressed in transfected cells; host or cells: CHO (Chinese Hamster Ovary)
T2 sequence (P29274 whole entry): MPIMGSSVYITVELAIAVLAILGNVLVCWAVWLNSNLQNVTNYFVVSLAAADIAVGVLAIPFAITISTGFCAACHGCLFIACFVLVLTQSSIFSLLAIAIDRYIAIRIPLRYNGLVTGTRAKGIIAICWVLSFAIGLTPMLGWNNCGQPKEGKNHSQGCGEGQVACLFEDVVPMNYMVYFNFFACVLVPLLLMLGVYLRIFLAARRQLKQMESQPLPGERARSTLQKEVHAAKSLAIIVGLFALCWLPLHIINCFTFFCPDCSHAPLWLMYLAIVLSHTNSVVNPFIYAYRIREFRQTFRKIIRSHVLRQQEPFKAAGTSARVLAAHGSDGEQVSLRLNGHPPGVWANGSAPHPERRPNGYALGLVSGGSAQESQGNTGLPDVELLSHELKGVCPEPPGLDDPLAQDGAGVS
Excerpt: as §1, §2, §3, §4

adenosine A2b receptor = biological target: T3, adenosine A2b receptor (Homo sapiens, UniProt P29275); assay: Indirect determination of adenosine agonism by way of gene expression (luciferase reporter), A2b cells; settings: CHO cells stably transfected with A2b receptor cDNA; 50% of maximum stimulation
T3 construct: expressed in transfected cells; host or cells: CHO (Chinese Hamster Ovary)
T3 sequence (P29275 1-332): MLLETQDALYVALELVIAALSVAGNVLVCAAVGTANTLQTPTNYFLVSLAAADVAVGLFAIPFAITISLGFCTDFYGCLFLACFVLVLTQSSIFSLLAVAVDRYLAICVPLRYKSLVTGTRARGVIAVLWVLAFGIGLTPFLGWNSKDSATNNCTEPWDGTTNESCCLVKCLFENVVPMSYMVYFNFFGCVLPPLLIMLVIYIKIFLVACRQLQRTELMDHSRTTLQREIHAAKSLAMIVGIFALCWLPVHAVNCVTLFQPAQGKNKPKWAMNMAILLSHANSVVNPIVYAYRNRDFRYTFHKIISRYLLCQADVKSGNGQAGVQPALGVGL
Excerpt: as §1, §2, §3, §4

Row | Structure (SMILES) | EC50 (adenosine A1 receptor) [nM] | EC50 (adenosine A2a receptor) [nM] | EC50 (adenosine A2b receptor) [nM]
1 | COC(=O)c1ccc(-c2nc(CSc3nc4c(c(-c5ccccc5)c3C#N)CCC4)cs2)cc1 [Example 13, Methyl 4-(4-{[(3-cyano-4-phenyl-6,7-dihydro-5H-cyclopenta[b]pyridin-2-yl)sulfanyl]methyl}-1,3-thiazol-2-yl)benzoate] | 21 | – | 1250
2 | Cc1nc(N)c2c(-c3ccc(OCCO)cc3)c(C#N)c(SCc3csc(-c4ccc(Cl)cc4)n3)nc2n1 [Example 9, 4-Amino-7-({[2-(4-chlorophenyl)-1,3-thiazol-4-yl]methyl}sulfanyl)-5-[4-(2-hydroxyethoxy)phenyl]-2-methylpyrido[2,3-d]pyrimidine-6-carbonitrile] | < 0.04 | 68 | 38
3 | Cc1nc2nc(SCc3csc(-c4ccc(Cl)cc4)n3)c(C#N)c(-c3ccc(OCCO)cc3)c2c(=O)[nH]1 [Example 10, 7-({[2-(4-Chlorophenyl)-1,3-thiazol-4-yl]methyl}thio)-5-[4-(2-hydroxyethoxy)phenyl]-2-methyl-4-oxo-3,4-dihydropyrido[2,3-d]pyrimidine-6-carbonitrile] | 0.4 | 1370 | 213
4 | N#Cc1c(SCc2csc(-c3ccc(Cl)cc3)n2)nc2[nH]c(=O)[nH]c(=O)c2c1-c1ccc(OCCO)cc1 [Example 12, 7-({[2-(4-Chlorophenyl)-1,3-thiazol-4-yl]methyl}sulfanyl)-5-[4-(2-hydroxyethoxy)phenyl]-2,4-dioxo-1,2,3,4-tetrahydropyrido[2,3-d]pyrimidine-6-carbonitrile] | 2 | 2000 | 880

Now from value to compound:

Row | EC50 (adenosine A1 receptor) [nM] | EC50 (adenosine A2a receptor) [nM] | EC50 (adenosine A2b receptor) [nM] | Structure (SMILES)
5 | 2.6 | > 3000 | 66 | N#Cc1c(SCc2csc(-c3ccc(Cl)cc3)n2)nc2c(c1-c1ccc(OC[C@@H](O)CO)cc1)C(=O)CCC2 [Example 3, 2-({[2-(4-Chlorophenyl)-1,3-thiazol-4-yl]methyl}thio)-4-(4-{[(2S)-2,3-dihydroxypropyl]oxy}-phenyl)-5-oxo-5,6,7,8-tetrahydroquinoline-3-carbonitrile]
6 | 7.9 | > 3000 | 207 | N#Cc1c(SCc2csc(-c3ccc(Cl)cc3)n2)nc2c(c1-c1ccc(OCCO)cc1)C(=O)CCC2 [Example 2, 2-({[2-(4-Chlorophenyl)-1,3-thiazol-4-yl]methyl}thio)-4-[4-(2-hydroxyethoxy)phenyl]-5-oxo-5,6,7,8-tetrahydroquinoline-3-carbonitrile]

From patent US8618119B2, “Fused cyanopyridines and the use thereof” (Bayer Intellectual Property GmbH, priority 2007, dated 2013)
